PMC12647759 (Scientific Reports, 2025)

Columns and labels:
[1] = tested on: PLC; conditions: cited from earlier work
[2] = target: T1, human PLCε (Homo sapiens, UniProt Q9P212); assay: In vitro PLC assay using fluorogenic substrate Compound 1 (HTS), PLCε; assay type: biochemical; conditions: Compound 1 as substrate, varying concentrations
T1 construct: expressing the full-length polypeptides of human PLCε, PLCβ4, PLCδ1 and PLCγ1 as FLAG fusions; made in house; host or cells: Expi293F cells
Experimental: For measuring inhibition by compounds for HTS, the reactions were conducted at RIKEN Center for Sustainable Resource Science (CSRS) as described above except that 5 µl of compound solution and 5 µl of purified PLCe (120 ng) were added to each well. […] For determination of the IC50 values for ZPT and Zn^2+, the EDTA concentration was reduced to one-tenth to avoid its zinc-chelating effect. For assay of the other PLC classes, the reactions were performed similarly except that PLCβ4 (5 ng), PLCδ1 (0.1 ng) or PLCγ1 (0.3 ng) was used instead of PLCε.

[3] = tested on: Caco2 cells; assay: Determination of intracellular zinc concentration with Zinquin ethyl ester; assay type: cell-based, human; conditions: 5 µM sodium pyrithione added to 5 µM ZnSO4, 30 min
Experimental: Confluent Caco2 cells in a Φ10-cm culture dish were subjected to serum starvation overnight and incubated with 10 µM MG132 for 30 min. […] The cells were harvested by trypsinization, washed with PBS and suspended at the density of 5 × 10^6 cells/ml in Hanks’ balanced salt solution (HBSS). After the addition of 1 mg/ml Zinquin ethyl ester (Dojindo Laboratories, Kumamoto, Japan)[27] dissolved in DMSO at the final concentration of 25 µM, the cell suspension was incubated at 37 °C for 30 min. Subsequently, the cells were washed three times with HBSS, suspended in HBSS at the density of 5 × 10^6 cells/ml and subjected to measurement of the fluorescence emission at 490 nm with the excitation at 370 nm by POLARstar Omega-25.

[4] = tested on: SW620 cells; assay: Experimental lung metastasis of SW620 cells in nude mice; assay type: in vivo; conditions: i.p. twice, one week before and after cell injection, ZPT 2.5 or 5 mg/kg, dipyrithione 5 mg/kg
Experimental: Female nude mice (6–8 weeks old) were injected with SW620 cells (1 × 10^7 cells) suspended in 200 µl L-15 medium via tail vein and maintained for further 8 weeks. ZPT, dipyrithione or the vehicle was administered intraperitoneally to the mice twice, 1 week before and after the cell injection. Thereafter, the mice were sacrificed, and their lungs were excised, fixed in 4% PFA, embedded in paraffin and serially sectioned. The Sect. (10-µm thick) were subjected to H&E staining. For histologic evaluation of lung micro-metastasis, the number of micro-metastatic nodules in 3 non-contiguous lung sections from each mouse was counted under a light microscope as described previously.

[5] = tested on: SW480 cells; assay: Tumour xenograft of SW480 cells in nude mice; assay type: in vivo; conditions: i.p. 3 days per week for 3 weeks, ZPT 2.5, 5 or 10 mg/kg, dipyrithione 5 mg/kg
Experimental: (§1) Tumour xenograft experiments were performed as previously described. Briefly, SW480 or Caco2 cells (5 × 10^6 cells each) were implanted subcutaneously into the right flanks of female athymic nude (nu/nu) mice (6–8 weeks old, CLEA Japan). One week later, the mice were administered intraperitoneally with ZPT, dipyrithione or the vehicle 3 days per week for 3 or 8 weeks, respectively, during which the volumes (V) of the tumours, calculated by the following formula: V = A × B^2/2 (A: the largest diameter, B: the perpendicular diameter), and the body weight were monitored every 7 days. Thereafter, tumours of the SW480-grafted mice were dissected, weighed, fixed in 4% paraformaldehyde, embedded in paraffin and serially sectioned. The Sect. (10-µm thick) were subjected to immunohistochemical detection of phosphorylated PKD by using anti-phospho-PKD antibody and HISTMOUSE-PLUS Kit (ZYMED Lab., Carlsbad, CA) according to the manufacturer’s protocol.

[6] = tested on: intestinal tumours of Apc^Min/+ mice; assay: Intestinal tumourigenesis of Apc^Min/+ mice; assay type: in vivo; conditions: i.p. 3 days per week for 11 weeks, ZPT 2.5 or 5 mg/kg, dipyrithione 5 mg/kg
Experimental: Five weeks-old Apc^Min/+ mice were administered intraperitoneally with ZPT, dipyrithione or the vehicle 3 days per week for 11 weeks. Thereafter, the mice were sacrificed and the whole small intestines were excised, rolled up in a ‘Swiss roll’ configuration, embedded in OCT compound and longitudinally sectioned at the 10-µm thickness. One section in the middle position of each intestine was subjected to H&E staining after fixation with 4% PFA, and tumours in the whole section were classified under microscope into hyperplasias, low-grade adenomas, high-grade adenomas and adenocarcinomas according to the histopathological criteria recommended for the study of mouse models of intestinal cancer. The classification was conducted by a pathologist at Pathology Analysis Center (Kanagawa, Japan) under the blind condition regarding the compound administration.

[7] = tested on: DSS-induced inflammatory colitis; assay: DSS-induced inflammatory colitis; assay type: in vivo, mice; conditions: 2.5% DSS 7 days; i.p. once a day, ZPT 2.5, 5 or 10 mg/kg, dipyrithione 10 mg/kg
Experimental: To induce inflammatory colitis, 10 weeks-old C57BL/6JJc1 mice were allowed to take drinking water containing 2.5% (w/v) DSS (molecular weight 36,000 ~ 50,000; Wako Pure Chemical, Osaka, Japan) ad libitum for 7 days[9],[30]. During this period, they were administered intraperitoneally with ZPT, dipyrithione or a vehicle (0.5% carboxymethyl cellulose and 0.9% NaCl) once a day. Thereafter, their colons were excised, washed with PBS, dissected longitudinally, fixed in 4% paraformaldehyde (PFA), embedded in paraffin and serially sectioned as described. The Sect. (10-µm thick) were subjected to H&E staining. Images were taken with an Olympus FSX100 microscope and Olympus FSX100-BSW software. The severity of inflammatory colitis was also assessed by measuring the body weight loss and the colon length shortening.

[8] = tested on: Caco2 cells; assay: Tumour xenograft of Caco2 cells in nude mice; assay type: in vivo; conditions: i.p. 3 days per week for 8 weeks, ZPT 2.5, 5 or 10 mg/kg, dipyrithione 5 mg/kg
Experimental: as §1

T1 sequence (Q9P212 whole entry, the tested form may be a part): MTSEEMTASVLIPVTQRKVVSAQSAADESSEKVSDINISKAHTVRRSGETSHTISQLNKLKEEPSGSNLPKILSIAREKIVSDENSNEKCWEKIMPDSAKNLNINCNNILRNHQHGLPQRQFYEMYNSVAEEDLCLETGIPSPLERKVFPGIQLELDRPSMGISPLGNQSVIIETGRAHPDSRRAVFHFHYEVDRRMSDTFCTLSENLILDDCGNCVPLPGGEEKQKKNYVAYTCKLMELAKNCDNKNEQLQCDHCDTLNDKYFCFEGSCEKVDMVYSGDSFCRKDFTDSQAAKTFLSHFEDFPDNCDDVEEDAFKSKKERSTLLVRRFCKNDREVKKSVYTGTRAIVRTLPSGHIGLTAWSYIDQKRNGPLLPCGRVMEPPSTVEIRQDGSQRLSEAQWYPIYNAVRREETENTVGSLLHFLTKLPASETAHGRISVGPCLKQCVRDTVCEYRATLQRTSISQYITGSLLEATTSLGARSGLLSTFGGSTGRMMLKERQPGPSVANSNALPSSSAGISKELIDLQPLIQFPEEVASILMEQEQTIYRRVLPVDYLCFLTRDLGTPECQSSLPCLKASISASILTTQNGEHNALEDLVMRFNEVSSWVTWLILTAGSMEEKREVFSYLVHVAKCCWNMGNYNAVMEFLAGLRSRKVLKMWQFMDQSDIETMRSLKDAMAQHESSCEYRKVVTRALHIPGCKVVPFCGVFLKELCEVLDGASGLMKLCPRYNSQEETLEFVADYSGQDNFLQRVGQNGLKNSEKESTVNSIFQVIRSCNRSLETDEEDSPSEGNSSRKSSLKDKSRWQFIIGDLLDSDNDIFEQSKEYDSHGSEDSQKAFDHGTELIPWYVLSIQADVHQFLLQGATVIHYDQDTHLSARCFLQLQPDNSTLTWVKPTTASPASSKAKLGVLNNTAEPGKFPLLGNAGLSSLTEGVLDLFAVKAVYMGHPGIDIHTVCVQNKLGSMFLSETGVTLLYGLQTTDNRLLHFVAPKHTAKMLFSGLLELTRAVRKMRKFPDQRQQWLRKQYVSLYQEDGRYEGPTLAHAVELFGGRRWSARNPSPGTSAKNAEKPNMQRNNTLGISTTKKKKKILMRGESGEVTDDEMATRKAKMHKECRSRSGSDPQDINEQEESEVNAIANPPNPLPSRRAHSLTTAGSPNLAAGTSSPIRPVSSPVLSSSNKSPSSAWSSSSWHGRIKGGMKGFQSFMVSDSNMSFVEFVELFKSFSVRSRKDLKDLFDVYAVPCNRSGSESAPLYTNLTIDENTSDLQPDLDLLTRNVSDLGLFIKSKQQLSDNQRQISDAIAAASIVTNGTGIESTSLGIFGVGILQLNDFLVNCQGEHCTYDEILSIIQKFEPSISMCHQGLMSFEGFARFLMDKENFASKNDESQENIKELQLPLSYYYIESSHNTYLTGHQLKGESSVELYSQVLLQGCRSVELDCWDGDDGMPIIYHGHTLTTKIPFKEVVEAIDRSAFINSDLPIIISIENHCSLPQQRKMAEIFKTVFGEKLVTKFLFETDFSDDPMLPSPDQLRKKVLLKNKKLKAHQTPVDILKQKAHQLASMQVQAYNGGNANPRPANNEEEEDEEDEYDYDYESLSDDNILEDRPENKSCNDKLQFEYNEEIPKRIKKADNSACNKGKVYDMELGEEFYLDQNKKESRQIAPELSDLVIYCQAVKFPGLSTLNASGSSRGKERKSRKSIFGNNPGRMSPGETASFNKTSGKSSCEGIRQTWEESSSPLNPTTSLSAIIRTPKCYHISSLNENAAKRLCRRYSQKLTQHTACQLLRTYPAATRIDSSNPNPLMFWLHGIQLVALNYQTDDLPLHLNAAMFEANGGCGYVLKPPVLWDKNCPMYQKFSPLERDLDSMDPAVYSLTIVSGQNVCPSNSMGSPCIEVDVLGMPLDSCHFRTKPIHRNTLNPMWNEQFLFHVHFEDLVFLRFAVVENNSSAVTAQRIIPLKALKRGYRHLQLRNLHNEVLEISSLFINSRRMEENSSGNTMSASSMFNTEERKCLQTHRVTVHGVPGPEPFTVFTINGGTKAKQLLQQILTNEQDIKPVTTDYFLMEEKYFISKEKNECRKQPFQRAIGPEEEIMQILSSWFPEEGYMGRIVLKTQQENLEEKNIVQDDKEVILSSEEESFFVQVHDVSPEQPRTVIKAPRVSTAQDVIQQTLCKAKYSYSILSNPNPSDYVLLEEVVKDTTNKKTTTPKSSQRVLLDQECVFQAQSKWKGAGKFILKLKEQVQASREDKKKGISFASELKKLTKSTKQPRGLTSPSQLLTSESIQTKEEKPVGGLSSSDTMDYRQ

Row | SMILES | inhibition of PLC catalytic activity in vitro [1] | inhibition of PLCε [2] | increase in intracellular Zn^2+ concentration [3] | numbers of micro-metastatic nodules in lung sections [4] | growth of grafted cells (tumour volume) [5] | ratio of high-grade adenomas / progression of low-grade to high-grade adenomas [6] | body weight loss [7] | colon length shortening [7] | histology: erosion of the mucosa, swelling of the submucosa and leukocyte infiltration [7] | growth of grafted cells (tumour volume) [8]
1 | COc1ccc2c(c1)CC[C@@H]1[C@@H]2CC[C@]2(C)[C@@H](NCCCCCCN3C(=O)C=CC3=O)CC[C@@H]12 [U73122] | failed to inhibit PLC catalytic activity in vitro |  |  |  |  |  |  |  |  | 
2 | On1ccccc1=S [sodium pyrithione] |  | failed to inhibit PLCε | 8.78 fold |  |  |  |  |  |  | 
3 | [O-][n+]1ccccc1SSc1cccc[n+]1[O-] [dipyrithione] |  | failed to inhibit PLCε |  | exhibited no effect | not | appeared to accelerate the progression of low-grade adenomas to high-grade adenomas | failed to alleviate | failed to alleviate | failed to alleviate | not
